From US9273017B2, “(Thio)morpholine derivatives as S1P modulators” (ABBVIE BAHAMAS LIMITED, priority 2009, dated 2016) come the findings set out here.

One data set deals with T1, human S1P1 (Homo sapiens, UniProt P21453).
T1 construct: host or cells: CHO-K1
As to the kind of experiment: In vitro functional activity (agonism), CHO-K1-human S1P1 cAMP assay. It is filed as cell-based. The note with it: read-out: S1P1 pEC50 (converted). The procedure:
In Vitro Functional Activity (Agonism) on Human S1P1 Receptors
The CHO-K1-Human S1P1-c-AMP assay was performed at Euroscreenfast, Brussels (Euroscreen, Human S1P1 coupling Gi/o), (Edg1) receptor, catalog no: FAST-0197C, December 2009).
Recombinant CHO-K1 cells expressing human S1P1, grown to mid-log Phase in culture media without antibiotics, detached, centrifuged and re-suspended. For agonist testing cells are mixed with compound and Forskolin and incubated at room temperature. Cells are lyses and cAMP concentration are estimated, according to the manufacturer specification, With the HTRF kit from CIS-BIO International (cat no 62AM2PEB).
Agonistic effects of compounds are expressed as a percentage of the activity of the reference compound at its EC100 concentration, EC50) is calculated and results are reported as pEC50. Compounds were tested at a 10 points half log concentration range duplicated in 1 experiment.

Another data set has as its target T2, human S1P5 receptor (Homo sapiens, UniProt Q9H228).
T2 construct: host or cells: CHO (AequoScreen recombinant cell line, co-expressing mitochondrially targeted apo-aequorin)
Put plainly: In vitro functional activity (agonism), CHO-human-S1P5-Aequorin assay. It is filed as cell-based. The note with it: read-out: S1P5 pEC50 (converted). The text has this: In Vitro Functional Activity (Agonism) on Human S1P5 Receptors
(§1) The CHO-human-S1P5-Aeqorin assay was bought from Euroscreen, Brussels (Euroscreen, Technical dossier, Human Lysophospholid S1P5 (Edg8) receptor, DNA clone and CHO AequoScreen™ recombinant cell-line, catalog no: ES-593-A, September 2006). Human-S1P5-Aequorin cells express mitochondrial targeted apo-Aequorin. Cells have to be loaded with coelanterazine, in order to reconstitute active Aequorin. After binding of agonists to the human S1P5 receptor the intracellular calcium concentration increases and binding of calcium to the apo-Aequorin/coelenterazine complex leads to an oxidation reaction of coelenterazine, which results in the production of apo-Aequorin, coelenteramide, CO2 and light (λmax 469 nm). This luminescent response is dependent on the agonist concentration. Luminescence is measured using the MicroBeta Jet (Perkin Elmer). Agonistic effects of compounds are expressed as pEC50. Compounds were tested at a 10 points half log concentration range, and 3 independent experiments were performed in single point's measurements.

The target of another data set is T3, human S1P3 receptor (Homo sapiens, UniProt Q99500).
T3 construct: cell line established at Solvay Pharmaceuticals; host or cells: CHO K1 (CHO/Gα16/AEQ/h-S1P3)
Put plainly: In vitro functional activity (agonism), CHO-human-S1P3-Aequorin assay. It is filed as cell-based. Particulars: read-out: S1P3 pEC50 (converted).
Excerpt: In Vitro Functional Activity (Agonism) on Human S1P3 Receptors
The CHO-human-S1P3-Aeqorin assay (CHO/Gα16/AEQ/h-S1P3) was established at Solvay Pharmaceuticals. The plasmid DNA coding for the S1P3 receptor (accession number in GenBank NM_005226 was purchased from UMR cDNA resource Centre (Rolla, Mo.). The pcDNA3.1/hS1P3 construct carrying the mitochondrially targeted apo-Aeqorin and Gα16 protein was transfected in CHO K1 cell-line.
as §1, with “Human-S1P3-Aequorin” for “The CHO-human-S1P5-Aeqorin assay was bought from Euroscreen, Brussels (Euroscreen, Technical dossier, Human Lysophospholid S1P5 (Edg8) receptor, DNA clone and CHO AequoScreen™ recombinant cell-line, catalog no: ES-593-A, September 2006). Human-S1P5-Aequorin”, “S1P3” for “S1P5”

The next data set relates to C57BL/6J mice. As to the kind of experiment: In vivo therapeutic model; T-maze spontaneous alternation. The note with it: 12-month old male C57BL6J mice; 10 mg/kg/day p.o. for 21 days and on test day at t=-30 min. On the procedure:
FIG. 1 Percentage of alternation of young and old C57BL/6J male mice in the T-maze with either vehicle (control groups) or compound 34b (10 mg/kg; p.o.)
In Vivo Therapeutic Model; T-Maze
Age-related memory deficits occur in humans and rodents. Spontaneous alternation is the innate tendency of rodents to alternate free choices in a T-maze over a series of successive runs. This sequential procedure relies on working memory and is sensitive to various pharmacological manipulations affecting memory processes (Aging and the physiology of spatial memory. Barnes C. A. Neurobiol. Aging 1988:563-8; Dember W N, Fowler H. Spontaneous alternation behavior. Psychol. Bull. 1958, 55(6):412-427; Gerlai R. A new continuous alternation task in T-maze detects hippocampal dysfunction in mice. A strain comparison and lesion study. Behav Brain Res 1998 95(1):91-101).
For this study, male C57BL/6J mice of 2 months or 12 months old were used in the spontaneous alternation task in the T-maze. In short, mice were subjected to 1 session containing 15 trials, consisting of 1 “forced-choice” trial, followed by 14 “free-choice” trials. The animal was considered as entering one of the arms of the maze when all four paws are placed within this arm. […] The percentage of alternation over the 14 free-choice trials was determined for each mouse and was used as an index of working memory performance. […]

The structures appear in SMILES notation. Structures can show the parent of a compound that is named as a salt.

T2 sequence (Q9H228 whole entry): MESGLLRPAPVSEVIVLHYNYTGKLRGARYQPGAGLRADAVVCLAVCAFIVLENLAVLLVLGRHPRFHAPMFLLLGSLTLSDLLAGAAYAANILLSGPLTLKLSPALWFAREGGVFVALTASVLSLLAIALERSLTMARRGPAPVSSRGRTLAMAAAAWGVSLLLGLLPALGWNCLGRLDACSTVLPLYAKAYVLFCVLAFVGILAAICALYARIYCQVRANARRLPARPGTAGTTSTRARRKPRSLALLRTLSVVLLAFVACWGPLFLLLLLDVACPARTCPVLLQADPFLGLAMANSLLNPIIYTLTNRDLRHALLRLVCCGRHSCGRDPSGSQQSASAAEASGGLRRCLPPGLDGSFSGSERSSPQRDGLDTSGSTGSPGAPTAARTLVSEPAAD
T3 sequence (Q99500 whole entry): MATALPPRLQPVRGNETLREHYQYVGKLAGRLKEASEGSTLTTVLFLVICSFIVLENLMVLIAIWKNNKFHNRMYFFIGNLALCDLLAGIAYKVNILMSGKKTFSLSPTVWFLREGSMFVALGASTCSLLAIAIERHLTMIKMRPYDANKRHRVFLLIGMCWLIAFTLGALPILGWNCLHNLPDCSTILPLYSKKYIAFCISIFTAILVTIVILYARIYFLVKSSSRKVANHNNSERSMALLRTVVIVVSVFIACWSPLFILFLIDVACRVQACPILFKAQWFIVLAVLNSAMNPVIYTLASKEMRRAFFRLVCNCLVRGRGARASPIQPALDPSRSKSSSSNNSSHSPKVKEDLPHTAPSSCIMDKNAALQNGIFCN
T1 sequence (P21453 whole entry): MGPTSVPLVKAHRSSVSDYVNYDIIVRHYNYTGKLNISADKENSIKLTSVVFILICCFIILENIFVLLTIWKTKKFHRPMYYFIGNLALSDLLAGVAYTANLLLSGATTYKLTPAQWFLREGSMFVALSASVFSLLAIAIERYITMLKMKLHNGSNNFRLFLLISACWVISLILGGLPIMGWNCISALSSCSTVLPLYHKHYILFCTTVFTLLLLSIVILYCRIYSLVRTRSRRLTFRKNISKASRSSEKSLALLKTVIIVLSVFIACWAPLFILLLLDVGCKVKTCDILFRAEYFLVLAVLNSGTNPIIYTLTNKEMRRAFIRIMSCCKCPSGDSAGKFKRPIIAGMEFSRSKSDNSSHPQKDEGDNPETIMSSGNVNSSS

For the molecule `Cc1cc(OCc2c(Cl)cccc2Cl)ccc1C1CN(CCC(=O)O)CCO1` (stereo not drawn) [Compound 130, 3-{2-[4-(2,6-Dichloro-benzyloxy)-2-methyl-phenyl]-morpholin-4-yl}-propionic acid trifluoroacetic acid salt], the EC50 was over 3160 nM at human S1P1, 79.4 nM on human S1P5 receptor and over 31600 nM on human S1P3 receptor.

In the case of `Clc1cccc(Cl)c1COc1ccc(C2CN(CCc3nn[nH]n3)CCO2)cc1` (stereo not drawn) [Compound 228, 2-[4-(2,6-Dichloro-benzyloxy)-phenyl]-4-[2-(2H-tetrazol-5-yl)-ethyl]-morpholine hydrochloride], the EC50 is over 3160 nM at human S1P1, 158 nM on human S1P5 receptor and over 10000 nM at human S1P3 receptor.

For `CCCCCCCCOc1ccc(C2CN(CCC(=O)O)CCO2)cc1` (stereo not drawn) [Compound 41, 3-(2-(4-Octyloxy-phenyl)-morpholin-4-yl)-propionic acid hydro-chloride], the EC50 was over 3160 nM on human S1P1, 251 nM on human S1P5 receptor and 2510 nM on human S1P3 receptor.

Turning to `Cl.O=C(O)CCN1CCOC(c2ccc(OCc3c(Cl)cccc3Cl)cc2)C1` (single isomer, unassigned; (-)) [Compound 34b, (−)-3-{2-[4-(2,6-Dichloro-benzyloxy)-phenyl]-morpholin-4-yl}-propionic acid hydrochloride], the “reversal of the age-related cognitive decline (percentage of alternation in T-maze)” value with C57BL/6J mice is reported as 100%. For the same molecule, the EC50 on human S1P1 is over 3160 nM; on human S1P5 receptor, 31.6 nM.

Consider `Cl.O=C(O)CCN1CCOC(c2ccc(OCc3c(Cl)cccc3Cl)cc2F)C1` (stereo not drawn) [Compound 179, 3-{2-[4-(2,6-Dichloro-benzyloxy)-2-fluoro-phenyl]-morpholin-4-yl}-propionic acid hydrochloride], for which the melting point fell in the range of 174.5 to 178 °C. In addition, the EC50 on human S1P1 is over 3160 nM. Besides, the EC50 at human S1P5 receptor is 126 nM. For the same molecule, the EC50 at human S1P3 receptor was over 10000 nM.

Molecule `CCCCCCCCOc1ccc(C2CN(CCC(=O)O)CCO2)c(C(F)(F)F)c1.Cl` (stereo not drawn) [Compound 189, 3-[2-(4-Octyloxy-2-trifluoromethyl-phenyl)-morpholin-4-yl]-propionic acid hydrochloride] registered a melting point of 178.5 to 180.5 °C. At human S1P1, the EC50 is 1580 nM. For the same molecule, on human S1P5 receptor, the EC50 is 158 nM. In addition, the EC50 at human S1P3 receptor is 1580 nM.

In turn, `Cc1cccc2c1C(Oc1ccc(C3CN(CCC(=O)O)CCO3)cc1)CC2` (stereo not drawn) [Compound 220, 3-{2-[4-(7-Methyl-indan-1-yloxy)-phenyl]-morpholin-4-yl}-propionic acid] gave a melting point of 134 to 139 °C. Further, the EC50 at human S1P5 receptor is 158 nM. Also, the EC50 on human S1P3 receptor was 251 nM.

As to `O=C(O)CCN1CCOC(c2ccc(OCc3c(Cl)cccc3C(F)(F)F)cc2)C1` (stereo not drawn) [Compound 153, 3-{2-[4-(2-Chloro-6-trifluoromethyl-benzyloxy)-phenyl]-morpholin-4-yl}-propionic acid hydrochloride], the EC50 on human S1P1 is over 3160 nM; on human S1P5 receptor, 100 nM; at human S1P3 receptor, over 10000 nM.

Regarding `CCCCCCCCOc1cccc(C2CN(CCC(=O)O)CCO2)c1.Cl` (stereo not drawn) [Compound 231, 3-[2-(3-Octyloxy-phenyl)-morpholin-4-yl]-propionic acid hydrochloride], the melting point was 218 to 220 °C. For the same molecule, the EC50 on human S1P5 receptor is 251 nM. In addition, the EC50 at human S1P3 receptor is over 10000 nM.

`COc1cc(C2CN(CCC(=O)O)CCO2)ccc1OCc1ccccc1C(F)(F)F.Cl` (stereo not drawn) [Compound 66, 3-{2-[3-Methoxy-4-(2-trifluoromethyl-benzyloxy)-phenyl]-morpholin-4-yl}-propionic acid hydrochloride] displayed a melting point of 170 to 172 °C. Moreover, the EC50 at human S1P5 receptor was 631 nM. Besides, the EC50 on human S1P3 receptor is over 10000 nM.

For the molecule `Cc1cc(C2CN(CCC(=O)O)CCO2)ccc1OCc1c(F)cccc1Cl` (stereo not drawn) [Compound 144, 3-{2-[4-(2-Chloro-6-fluoro-benzyloxy)-3-methyl-phenyl]-morpholin-4-yl}-propionic acid hydrochloride], the EC50 is 631 nM at human S1P5 receptor and over 10000 nM at human S1P3 receptor.

`CCCc1ncc(OCCCOc2ccc(C3CN(CCC(=O)O)CCO3)cc2)s1` (stereo not drawn) [Compound 3, 3-(2-{4-[3-(2-Propyl-thiazol-5-yloxy)-propoxy]-phenyl}-morpholin-4-yl)-propionic acid trifluoroacetic acid salt]: the values for the EC50 at human S1P5 receptor and on human S1P3 receptor were 10000 nM and 15800 nM, respectively.
